From patent publication US20230416196A1, “DIMER OF BIGUANIDINES AND THEIR THERAPEUTIC USES” (INSTITUT CURIE, priority 2020, published 2023)

Columns and labels:
[1] = system: mitochondrial NAD^+ and NADH in aMDM; experiment: Mass spectrometry-based metabolomics of mitochondrial NAD+ and NADH in aMDM; format: cell-based, human; details: treatment during macrophage activation; FIG. 11D
Procedure: Mitochondrial extraction. Mitochondria were isolated using the Qproteome Mitochondria Isolation Kit (Qiagen, 37612) according to the manufacturer's protocol. In brief, cells were washed and centrifuged at 500× g for 10 min and the supernatant was removed. Cells were then washed with a solution of 0.9% NaCl (Sigma-Aldrich, 57653-250G) and resuspended in ice-cold Lysis Buffer and incubated at 4° C. for 10 min. The lysate was then centrifuged at 1000×g for 10 min at 4° C. and the supernatant carefully removed. Subsequently, the cell pellet was resuspended in disruption buffer. Complete cell disruption was obtained by using a dounce homogenizer (mitochondria for ICP-MS) or a blunt-ended needle and a syringe (mitochondria for metabolomics). The lysate was then centrifuged at 1000× g for 10 min at 4° C. and the supernatant transferred to a clean tube. The supernatant was then centrifuged at 6000× g for 10 min at 4° C. to obtain pellets containing mitochondria.
Quantitative metabolomics. In a typical experiment 1.5 million cells were used for total extracts and 15 million cells for mitochondrial extracts. Cells were harvested and the supernatant removed to generate the corresponding cell pellets. […] Peak detection and integration of the analytes were performed using the Agilent Mass Hunter quantitative software (B.07.01). […]

neutrophils = experiment: Activation of neutrophils (CD64, CD66b flow cytometry); format: cell-based, human; details: LCC-12 10 μM, 1 h, LPS; FIG. 6C
Procedure: Neutrophils. Peripheral blood samples were collected from healthy donors (Etablissement Français du Sang). Then, red cells in whole blood samples were lysed (ebioscience 10×RBC lysis buffer, 00-4300-54). The remaining cells were cultured in RPMI 1640 supplemented with glutamine, and 2% human serum, and activated 1 h with LPS (2 μg/mL) in presence of LCC-12 (10 μM). The granulocytes/neutrophils population was determined by flow cytometry using FSC, SSC and CD15 surface marker. The activation status of the granulocytes was assessed by measuring CD64 and CD66b surface markers by flow cytometry.

[2] = system: mice challenged by cecal ligation and puncture; experiment: Murine model of sepsis using cecal ligation and puncture (CLP); format: in vivo, BALB/c mice
Procedure: Murine model of sepsis using cecal ligation and puncture. All animal-related research is conducted in accordance with 2010/63/EU and National legislation regulating the use of laboratory animals in scientific research and for other purposes (Official Gazette 55/13). An Institutional Committee on Animal Research Ethics (CEEA-047) oversees that animal-related procedures are not compromising the animal welfare. 9 weeks-old male BALB/c mice were used for these experiments. Animals were anesthetized by isoflurane (Forene). After abdominal incision, the cecum was ligated, punctured with a gauge needle (25G or 21G), and a small amount of fecal matter was released. After the cecum was returned to the abdomen, the abdominal cavity was closed in two layers and the mice were resuscitated with 30 mL/kg body weight of saline (0.9% NaCl) administered subcutaneously. For the sham group, after abdominal incision, the cecum was manipulated but was neither ligated nor punctured. After the cecum was returned to the abdomen, the abdominal cavity was closed in two layers and the mice were resuscitated with 30 mL/kg body weight of saline administered subcutaneously. LCC-12 (0.3 mg/kg, IP) was administered at 0.3 mg/kg dose 4 h, 24 h, 48 h, 72 h and 96 h following CLP creation. Mortality incidence was monitored every 2 h up to 120 h (except from 10 pm to 6 am) post CLP creation. Dexamethasone was administered intraperitoneally at 1 mg/kg dose 5-minutes prior CLP creation.

## N=C(N)NC(=N)NCCCCCCCCCCCCNC(=N)NC(=N)N [LCC-12, lipophilic copper clamp C12]
[1]
  mitochondrial NAD^+ and NADH levels: decrease of both mitochondrial NAD^+ and NADH
neutrophils
  activation of neutrophils in vitro: does not impact the activation
[2]; 21G needle, LCC-12 0.3 mg/kg IP, FIG. 5A
  survival in CLP sepsis: delayed death and increased survival rate
[2]; 25G needle, LCC-12 0.3 mg/kg IP, FIG. 5C
  body weight loss in CLP-induced sublethal sepsis: reduced body weight loss
[2]; 25G needle, LCC-12 0.3 mg/kg IP, FIG. 5D
  overall gravity score of symptoms in CLP-induced sublethal sepsis: improved the overall gravity score of symptoms
[2]; CLP, throughout the treatments
  symptoms of sepsis compared to dexamethasone: considerably attenuated the symptoms of sepsis compared to dexamethasone
